From US9399626B2, “2-thiopyrimidinones” (Pfizer Inc., priority 2011, dated 2016)
Counter-ions that a name gives are not always drawn.

molecular target: T1, MPO (purified from human polynuclear leukocytes) (Homo sapiens, UniProt P05164); assay: MPO Amplex Red Activity Assay; type: biochemical; conditions: Table 1, 2 μM H2O2, pH 7.4
T1 construct: purified from human polynuclear leukocytes; purchased Calbiochem/EMD Biosciences; host or cells: human polynuclear leukocytes (natural source)
Method in brief: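 Human leukocyte MPO […] oxidises 30 μM Amplex Red with 2 μM H2O2 in 50 mM NaPi pH 7.4, 150 mM NaCl, 1 mM DTPA, 2% DMSO. Resorufin fluorescence (ex 530/em 580 nm) read every 20 s, minus catalase background. kobs from the first 600 s, corrected for auto-inactivation, fit versus [I] for kinact/KI.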

T1 sequence (P05164 279-745 limits assumed): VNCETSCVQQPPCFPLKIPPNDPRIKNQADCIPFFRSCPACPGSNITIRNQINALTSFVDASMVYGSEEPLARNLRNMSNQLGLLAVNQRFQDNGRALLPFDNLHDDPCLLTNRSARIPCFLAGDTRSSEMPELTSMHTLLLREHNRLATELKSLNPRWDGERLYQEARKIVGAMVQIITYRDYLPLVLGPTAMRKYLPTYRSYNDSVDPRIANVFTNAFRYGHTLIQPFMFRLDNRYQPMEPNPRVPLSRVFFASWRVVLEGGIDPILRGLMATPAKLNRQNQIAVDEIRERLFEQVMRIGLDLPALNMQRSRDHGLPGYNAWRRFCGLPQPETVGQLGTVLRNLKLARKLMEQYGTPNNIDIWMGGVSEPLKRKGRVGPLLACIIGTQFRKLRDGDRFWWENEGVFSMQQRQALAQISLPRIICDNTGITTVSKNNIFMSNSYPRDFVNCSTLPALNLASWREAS
T1 sequence (P05164 165-273 limits assumed): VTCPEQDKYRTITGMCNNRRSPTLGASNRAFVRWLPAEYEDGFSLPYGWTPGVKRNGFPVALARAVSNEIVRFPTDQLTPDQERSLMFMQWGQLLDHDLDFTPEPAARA

SMILES	MPO kinact/Ki
COCCn1c(-c2ccc(N(C)C)nc2)cc(=O)[nH]c1=S [Example 165, 6-[6-(dimethylamino)pyridin-3-yl]-1-(2-methoxyethyl)-2-thioxo-2,3-dihydropyrimidin-4(1H)-one]	1280 1/s per M
COCCn1c(-c2cccc3sccc23)cc(=O)[nH]c1=S [Example 74, 6-(1-benzothien-4-yl)-1-(2-methoxyethyl)-2-thioxo-2,3-dihydropyrimidin-4(1H)-one]	14400 1/s per M
COc1ccc(Cl)cc1-c1cc(=O)[nH]c(=S)n1CCNC(=O)CN [Example 135, N-{2-[6-(5-chloro-2-methoxyphenyl)-4-oxo-2-thioxo-3,4-dihydropyrimidin-1(2H)-yl]ethyl} glycinamide hydrochloride]	6750 1/s per M
CCOC(=O)Cn1c(-c2cc(OC)c(OC)cc2OC)cc(=O)[nH]c1=S [Example 139, ethyl[4-oxo-2-thioxo-6-(2,4,5-trimethoxyphenyl)-3,4-dihydropyrimidin-1(2H)-yl]acetate]	2890 1/s per M
COCCn1c(-c2ccc3ccccc3c2OC)cc(=O)[nH]c1=S [Example 115, 1-(2-methoxyethyl)-6-(1-methoxy-2-naphthyl)-2-thioxo-2,3-dihydropyrimidin-4(1H)-one]	4380 1/s per M
COCCn1c(-c2ccc(OC)nc2)cc(=O)[nH]c1=S [Example 295, 1-(2-methoxyethyl)-6-(6-methoxypyridin-3-yl)-2-thioxo-2,3-dihydropyrimidin-4(1H)-one]	793 1/s per M
COc1ccc(-c2cc(=O)[nH]c(=S)n2C(C)C(N)=O)c(OC)c1 (centres unmarked) [Example 188, 2-[6-(2,4-dimethoxyphenyl)-4-oxo-2-thioxo-3,4-dihydropyrimidin-1(2H)-yl]propanamide]	2180 1/s per M
NCCn1c(-c2ccccc2OCC(N)=O)cc(=O)[nH]c1=S [Example 272, 2-{2-[3-(2-aminoethyl)-6-oxo-2-thioxo-1,2,3,6-tetrahydropyrimidin-4-yl]phenoxy}acetamide trifluoroacetate]	3160 1/s per M
COCCn1c(-c2cnc3ccccc3c2)cc(=O)[nH]c1=S [Example 320, 1-(2-methoxyethyl)-6-quinolin-3-yl-2-thioxo-2,3-dihydropyrimidin-4(1H)-one]	2390 1/s per M
COc1ccc(-c2cc(=O)[nH]c(=S)n2CCN2CCOCC2)c(OC)c1 [Example 251, 6-(2,4-dimethoxyphenyl)-1-(2-morpholin-4-ylethyl)-2-thioxo-2,3-dihydropyrimidin-4(1H)-one]	68 1/s per M
COc1ccc(-c2cc(=O)[nH]c(=S)n2CC2(O)CCNCC2)c(OC)c1 [Example 252, 6-(2,4-dimethoxyphenyl)-1-[(4-hydroxypiperidin-4-yl)methyl]-2-thioxo-2,3-dihydropyrimidin-4(1H)-one hydrochloride]	2480 1/s per M
COc1ccc(-c2cc(=O)[nH]c(=S)n2CCOC(=O)CN)c(OC)c1 [Example 244, 2-[6-(2,4-dimethoxyphenyl)-4-oxo-2-thioxo-3,4-dihydropyrimidin-1(2H)-yl]ethyl glycinate tosylate]	8970 1/s per M
COCCn1c(-c2ccncc2OC)cc(=O)[nH]c1=S [Example 296, 1-(2-methoxyethyl)-6-(3-methoxypyridin-4-yl)-2-thioxo-2,3-dihydropyrimidin-4(1H)-one]	1570 1/s per M
COCCc1ccccc1-c1cc(=O)[nH]c(=S)n1CCO [Example 271, 1-(2-hydroxyethyl)-6-[2-(2-methoxyethyl)phenyl]-2-thioxo-2,3-dihydropyrimidin-4(1H)-one]	2010 1/s per M
COCCn1c(-c2cccc(S(C)(=O)=O)c2)cc(=O)[nH]c1=S [Example 109, 1-(2-methoxyethyl)-6-[3-(methylsulfonyl)phenyl]-2-thioxo-2,3-dihydropyrimidin-4(1H)-one]	914 1/s per M
COc1cc(-c2cc(=O)[nH]c(=S)n2CCN)c(OC)cc1C [Example 84, 1-(2-aminoethyl)-6-(2,5-dimethoxy-4-methylphenyl)-2-thioxo-2,3-dihydropyrimidin-4(1H)-one hydrochloride]	6630 1/s per M

SMILES	MPO kinact/Ki
COc1cc(-c2cc(=O)[nH]c(=S)n2CCO)c(OC)cc1C [Example 273, 6-(2,5-dimethoxy-4-methylphenyl)-1-(2-hydroxyethyl)-2-thioxo-2,3-dihydropyrimidin-4(1H)-one]	8180 1/s per M
COCCn1c(-c2cccc(O)c2)cc(=O)[nH]c1=S [Example 287]	2130 1/s per M
COc1ccccc1-c1cc(=O)[nH]c(=S)n1CCN=C(N)N [Example 77, 2-{2-[6-(2-methoxyphenyl)-4-oxo-2-thioxo-3,4-dihydropyrimidin-1(2H)-yl]ethyl}guanidine hydrochloride]	6660 1/s per M
CCOc1ccccc1-c1cc(=O)[nH]c(=S)n1CC1CCCO1 (centres unmarked) [Example 102, 6-(2-ethoxyphenyl)-1-(tetrahydrofuran-2-ylmethyl)-2-thioxo-2,3-dihydropyrimidin-4(1H)-one]	4200 1/s per M
COc1ccc(-c2cc(=O)[nH]c(=S)n2Cc2cccnc2)c(OC)c1 [Example 231, 6-(2,4-dimethoxyphenyl)-1-(pyridin-3-ylmethyl)-2-thioxo-2,3-dihydropyrimidin-4(1H)-one]	1910 1/s per M
COc1ccc(-c2cc(=O)[nH]c(=S)n2CCCN(C)C)c(OC)c1 [Example 220, 6-(2,4-dimethoxyphenyl)-1-[3-(dimethylamino)propyl]-2-thioxo-2,3-dihydropyrimidin-4(1H)-one]	2420 1/s per M
O=c1cc(-c2cccc3c2OCC3)n(CCO)c(=S)[nH]1 [Example 16, 6-(2,3-dihydro-1-benzofuran-7-yl)-1-(2-hydroxyethyl)-2-thioxo-2,3-dihydropyrimidin-4(1H)-one]	6510 1/s per M
CNC(=O)c1cccc(-c2cc(=O)[nH]c(=S)n2CCOC)c1 [Example 325, 3-[3-(2-methoxyethyl)-6-oxo-2-thieno-1,2,3,6-tetrahydropyrimidin-4-yl]-N-methylbenzamide]	1160 1/s per M
COc1ccc(-c2cc(=O)[nH]c(=S)n2CCN)c2ccccc12 [Example 185, 1-(2-aminoethyl)-6-(4-methoxy-1-naphthyl)-2-thioxo-2,3-dihydropyrimidin-4(1H)-one hydrochloride]	9740 1/s per M
COCCn1c(-c2ccccn2)cc(=O)[nH]c1=S [Example 10, 1-(2-Methoxyethyl)-6-(pyridin-2-yl)-2-thioxo-2,3-dihydropyrimidin-4(1H)-one]	619 1/s per M
COc1cc(OC)cc(-c2cc(=O)[nH]c(=S)n2CCO)c1 [Example 54, 6-(3,5-dimethoxyphenyl)-1-(2-hydroxyethyl)-2-thioxo-2,3-dihydropyrimidin-4(1H)-one]	7070 1/s per M
COc1ccc(Cl)cc1-c1cc(=O)[nH]c(=S)n1CCCO [Example 94, 6-(5-chloro-2-methoxyphenyl)-1-(3-hydroxypropyl)-2-thioxo-2,3-dihydropyrimidin-4(1H)-one]	6930 1/s per M
COc1ccc(-c2cc(=O)[nH]c(=S)n2CCO)c2ccccc12 [Example 274, 1-(2-hydroxyethyl)-6-(4-methoxy-1-naphthyl)-2-thioxo-2,3-dihydropyrimidin-4(1H)-one]	22800 1/s per M
NC(=O)Cn1c(-c2cc3ccccc3s2)cc(=O)[nH]c1=S [Example 69, 2-[6-(1-benzothien-2-yl)-4-oxo-2-thioxo-3,4-dihydropyrimidin-1(2H)-yl]acetamide]	4250 1/s per M
COc1ccc(-c2cc(=O)[nH]c(=S)n2CCCN=C(N)N)c(OC)c1 [Example 270, 2-{3-[6-(2,4-dimethoxyphenyl)-4-oxo-2-thioxo-3,4-dihydropyrimidin-1(2H)-yl]propyl}guanidine trifluoroacetate]	20500 1/s per M
COCCn1c(-c2ncc[nH]2)cc(=O)[nH]c1=S [Example 154, 6-(1H-imidazol-2-yl)-1-(2-methoxyethyl)-2-thioxo-2,3-dihydropyrimidin-4(1H)-one]	1070 1/s per M

same assay, conditions: Table 1A, 2 μM H2O2, pH 7.4

SMILES	MPO kinact/Ki
COc1ccc(OCCO)c(-c2cc(=O)[nH]c(=S)n2CC(=O)NCCN)c1 [Example 378, N-(2-aminoethyl)-2-{6-[2-(2-hydroxyethoxy)-5-methoxyphenyl]-4-oxo-2-thioxo-3,4-dihydropyrimidin-1(2H)-yl}acetamide]	5040 1/s per M
COc1ccc(-c2cc(=O)[nH]c(=S)n2CC(F)(F)CN=C(N)N)c(OC)c1 [Example 453, 2-{3-[6-(2,4-dimethoxyphenyl)-4-oxo-2-thioxo-3,4-dihydropyrimidin-1(2H)-yl]-2,2-difluoropropyl}guanidine]	27800 1/s per M
COc1ccc(-c2cc(=O)[nH]c(=S)n2CCNCCN)c(OC)c1 [Example 381, 1-{2-[(2-aminoethyl)amino]ethyl}-6-(2,4-dimethoxyphenyl)-2-thioxo-2,3-dihydropyrimidin-4(1H)-one]	1970 1/s per M
COc1ccc(F)cc1-c1cc(=O)[nH]c(=S)n1CCCN(C)C(=N)N [Example 375, 1-{3-[6-(5-fluoro-2-methoxyphenyl)-4-oxo-2-thioxo-3,4-dihydropyrimidin-1(2H)yl]propyl}-1-methylguanidine]	11300 1/s per M
NC(=O)Cn1c(-c2cccc3c2OCCO3)cc(=O)[nH]c1=S [Example 363, 2-[6-(2,3-dihydro-1,4-benzodioxin-5-yl)-4-oxo-2-thioxo-3,4-dihydropyrimidin-1(2H)-yl]acetamide]	9680 1/s per M
NCCNC(=O)Cn1c(-c2ccccc2OCCO)cc(=O)[nH]c1=S [Example 428, N-(2-aminoethyl)-2-{6-[2-(2-hydroxyethoxy)phenyl]-4-oxo-2-thioxo-3,4-dihydropyrimidin-1(2H)-yl}acetamide]	5890 1/s per M
